Values of other authors, collected in paper PMC6311693 (ACS Central Science, 2018).

Conditions: 8 mg/kg; musculoskeletal system, increases in creatine phosphokinase

## CCCCCCCCCC(=O)N[C@@H](Cc1c[nH]c2ccccc12)C(=O)N[C@H](CC(N)=O)C(=O)N[C@@H](CC(=O)O)C(=O)N[C@@H]1C(=O)NCC(=O)N[C@@H](CCCN)C(=O)N[C@@H](CC(=O)O)C(=O)N[C@H](C)C(=O)N[C@@H](CC(=O)O)C(=O)NCC(=O)N[C@H](CO)C(=O)N[C@@H]([C@H](C)CC(=O)O)C(=O)N[C@@H](CC(=O)c2ccccc2N)C(=O)O[C@@H]1C [daptomycin]
  adverse effects in phase 1 clinical trials: unacceptable adverse effects
